Where a name gives a salt, the structure may show the parent alone.
Tests used:
shunt pathway = assay: Test, Code 036 (C-Shunt inhibitor), lysis of human erythrocytes in autologous serum via shunt pathway activated by cobra venom factor; format: cell-based; conditions: activity in wells, two-fold serial dilution assay; higher well number indicates higher activity
Description: (§1) An active inhibitor protects C2 C1 and C4; (ii) Test, Code 035 (C3-C9 inhibitor) -- This test determines the ability of thee late components of human complement (C3-C9) to lyse EAC 142 in the presence of appropriate dilutions of the test compound. An active inhibitor protects EAC 142 from lysis by human C3-C9; (iii) Test, Code 036 (C-Shunt inhibitor) -- In this test human erythrocytes rendered fragile are lysed in autologous serum via the shunt pathway activated by cobra venom factor in the present of appropriate dilutions of the test compound. Inhibition of the shunt pathway results in failure of lysis; (iv) Forssman Vasculitis Test -- Here, the well known complement dependent lesion, Forssman vasculitis, is produced in guinea pigs by intradermal injection of rabbit anti-Forssman antiserum. […]

activated human C1 = assay: Test, Code 026 (C1 inhibitor); format: biochemical; conditions: activity in wells, two-fold serial dilution assay; higher well number indicates higher activity
Description: as §1

whole complement = assay: Complement Level Reduction Test (serum of dosed guinea pigs, capillary tube assay); format: in vivo; conditions: 200 mg/kg i.p.
complement system = conditions: literature report; cited from earlier work
[1] = system: hereditary angioneurotic edema; conditions: literature report; cited from earlier work
human serum complement = conditions: in vitro and in vivo, judged by reduction in total hemolytic complement activity; cited from earlier work

O=C(O)c1cc(NS(=O)(=O)c2cc(S(=O)(=O)O)cc(S(=O)(=O)Nc3cc(C(=O)O)cc(C(=O)O)c3)c2)cc(C(=O)O)c1 [5,5'[5-Sulfo-m-phenylenebis(sulfonylimino)]diisophathalic acid sodium salt, compound with ethanol (1:1)]
Shunt Inhibition 036 Wells (shunt pathway): +1 Wells | C1 026 Wells (activated human C1): +4 Wells | In Vivo Activity (Guinea Pig) % Inhibition, Intraperitoneal, 30 minutes (whole complement; 30 min): -44% | In Vivo Activity (Guinea Pig) % Inhibition, Intraperitoneal, 60 minutes (whole complement; 60 min): -42% | In Vivo Activity (Guinea Pig) % Inhibition, Intraperitoneal, 120 minutes (whole complement; 120 min): -49%

Cc1ccc(C(=O)Nc2ccc(S(=O)(=O)O)c3cc(S(=O)(=O)O)cc(S(=O)(=O)O)c23)cc1NC(=O)c1cccc(NC(=O)Nc2cccc(C(=O)Nc3cc(C(=O)Nc4ccc(S(=O)(=O)O)c5cc(S(=O)(=O)O)cc(S(=O)(=O)O)c45)ccc3C)c2)c1 [Suramin]
anticomplementary effect / complement inhibition (complement system): competitive inhibitor of the complement system | treatment of hereditary angioneurotic edema [1]: used with success

Nc1ccc2cc(S(=O)(=O)O)cc(O)c2c1N=Nc1ccc(NC(=O)Nc2ccc(N=Nc3c(N)ccc4cc(S(=O)(=O)O)cc(O)c34)c(S(=O)(=O)O)c2)cc1S(=O)(=O)O [chlorazol fast pink, 3,3'-ureylenebis-[6-(2-amino-8-hydroxy-6-sulfo-1-naphthylazo)]benzenesulfonic acid, tetrasodium salt]
anticomplementary effect / complement inhibition (complement system): anticomplementary effect

NCCCCCC(=O)O [epsilon-aminocaproic acid]
treatment of hereditary angioneurotic edema [1]: used with success

NC[C@H]1CC[C@H](C(=O)O)CC1 [tranexamic acid]
treatment of hereditary angioneurotic edema [1]: used with success

heparin
anticomplementary effect / complement inhibition (complement system): anticomplementary effect

pentosan-poly-sulfoester
anticomplementary activity on human serum (human serum complement): anticomplementary activity on human serum both in vitro and in vivo

— patent US4120894A, “Sulfo-m-phenylenebis(sulfonylimino)diisophthalic acid salts” (American Cyanamid Company, priority 1977, dated 1978)
